Reference: ChEMBL document CHEMBL1138104, “Isolation, structure elucidation, antioxidative and immunomodulatory properties of two novel dihydrocoumarins from Aloe vera” (Bioorg Med Chem Lett, 2006)
The source made the active and inactive calls. The calls are words filed in the database; no cut-off is given here.

Key:
[1] = system: Radical scavenging activity; experiment: Inhibition of hydroxyl radical scavenging activity; assay type: functional; details: dose or concentration not given here
[2] = system: Peritoneal macrophage cell; experiment: Enhancement of respiratory burst in rat peritoneal macrophage at 200 uM; assay type: functional, cell-based
[3] = system: Radical scavenging activity; experiment: Inhibition of superoxide radical scavenging activity; assay type: functional; details: dose or concentration not given here
[4] = system: Peritoneal macrophage cell; experiment: Phagocytic function of rat peritoneal macrophage at 50-200 ug/ml; assay type: functional, cell-based

| Structure (SMILES) | inhibition [1] [%] | Activity [2] | inhibition [3] [%] | Activity [4] |
| --- | --- | --- | --- | --- |
| CCOC(=O)C[C@H](c1ccc(O)cc1)c1c(O)cc(O)c(-c2cc(OC)cc(=O)o2)c1C | 42.3 | inactive | 30.3 |  |
| COc1cc(-c2c(O)cc3c(c2C)[C@@H](c2ccc(O)cc2)CC(=O)O3)oc(=O)c1 | 43.7 | Active | 42.3 | Dose-dependent effect |
